Data published in US12653191B2, “Active compound combinations” (Bayer Aktiengesellschaft, priority 2020, dated 2026).
Like-named read-outs stand apart in the source and are kept apart here.

What was measured:
Cercospora beticola [1] = assay: in vitro-Test with fungal microorganisms, Method B (tables C11-C20); format: cell-based
Description: (§1) Example: In Vitro-Test with Fungal Microorganisms
(§2) Wells of 96-well microtiter plates are filled with 30 μl of a preparation of test compound or compound combination in methanol+emulsifier alkylaryl-polyglycol-ether. Thereafter, the solvent is evaporated in a hood. At the next step, 200 μl of liquid growth medium is given, that has been amended with an appropriate concentration of spores or mycelium suspension of the test fungus.
(§3) With the aid of a photometer, the extinction in all wells is measured at the wavelength of 600 nm.
(§4) The microtiter plates are incubated for 3 to 7 days at 20° C. and 85% relative humidity. After the incubation inhibition of growth is determined photometrically. Efficacy is calculated in relation to the untreated control, 0% efficacy means fungal growth as high as in untreated control while 100% efficacy means no fungal growth is measured.
(§5) The data in tables A1 to A12, B1 to B14, C1 to C10, D1 to D8, E1 to E8, F1 to F11, G1 to G4, H1 to H4 and I1 to I5 were collected according to Method A. The data in tables A13 to A22, B15 to B18, C11 to C20, E9 to E16, F12 to F15, G5 to G15, H5 to H8, I6 to I11 and J1 to J11 were collected according to Method B.

Alternaria alternata = assay: in vitro-Test with fungal microorganisms, Method B (tables A13-A22); format: cell-based; conditions: for inhibition of growth at 0.008 ppm / inhibition of growth at 0.04 ppm / inhibition of growth at 0.2 ppm / inhibition of growth at 1 ppm: Alternaria alternata, read-out: Efficacy
Description: as §1, §2, §3, §4, §5

Botrytis cinerea [2] = assay: in vitro-Test with fungal microorganisms, Method B (tables B15-B18); format: cell-based; conditions: for inhibition of growth at 1 ppm: 1 ppm alone
Description: as §1, §2, §3, §4, §5

Cercospora beticola [3] = assay: in vitro-Test with fungal microorganisms, Method A (tables C1-C10); format: cell-based; conditions: Cercospora beticola, read-out: Efficacy %
Description: as §1
as §2, with “10” for “30”, “100” for “200”, “potato dextrose” for “growth”, “given into each well,” for “given,”
(§6) With the aid of a photometer, the extinction in all wells is measured at the wavelength of 620 nm.
as §4, with “incubated” for “incubated for 3 to 7 days”, “The” for “After the incubation”, “again photometrically 3-5 days after the application.” for “photometrically.”
as §5

Diaporthe citri = assay: in vitro-Test with fungal microorganisms, Method A (tables F1-F11); format: cell-based; conditions: Diaporthe citri, single active, read-out: Efficacy
Description: as §1
as §2, with “10” for “30”, “100” for “200”, “potato dextrose” for “growth”, “given into each well,” for “given,”
as §6
as §4, with “incubated” for “incubated for 3 to 7 days”, “The” for “After the incubation”, “again photometrically 3-5 days after the application.” for “photometrically.”
as §5

[4] = system: Ustilago segetum var. avenae; assay: in vitro-Test with fungal microorganisms, Method A (tables I1-I5); format: cell-based; conditions: alone, read-out: Efficacy %
Description: as §1
as §2, with “10” for “30”, “100” for “200”, “potato dextrose” for “growth”, “given into each well,” for “given,”
as §6
as §4, with “incubated” for “incubated for 3 to 7 days”, “The” for “After the incubation”, “again photometrically 3-5 days after the application.” for “photometrically.”
as §5

Botrytis cinerea [5] = assay: in vitro-Test with fungal microorganisms, Method A (tables B1-B14); format: cell-based; conditions: Botrytis cinerea, read-out: Efficacy
Description: as §1
as §2, with “10” for “30”, “100” for “200”, “potato dextrose” for “growth”, “given into each well,” for “given,”
as §6
as §4, with “incubated” for “incubated for 3 to 7 days”, “The” for “After the incubation”, “again photometrically 3-5 days after the application.” for “photometrically.”
as §5

Alternaria alternate = assay: in vitro-Test with fungal microorganisms, Method A (tables A1-A12); format: cell-based, Alternaria alternata; conditions: Alternaria, applied alone, read-out: Efficacy %
Description: as §1
as §2, with “10” for “30”, “100” for “200”, “potato dextrose” for “growth”, “given into each well,” for “given,”
as §6
as §4, with “incubated” for “incubated for 3 to 7 days”, “The” for “After the incubation”, “again photometrically 3-5 days after the application.” for “photometrically.”
as §5

Fusarium culmorum = assay: in vitro-Test with fungal microorganisms, Method B (tables G5-G15); format: cell-based; conditions: Fusarium culmorum, alone, read-out: Efficacy
Description: as §1, §2, §3, §4, §5

Cordana musae = assay: in vitro-Test with fungal microorganisms, Method B (tables E9-E16); format: cell-based; conditions: Neocordana musae, single active, read-out: Efficacy
Description: as §1, §2, §3, §4, §5

[6] = system: Ustilago segetum var. avenae; assay: in vitro-Test with fungal microorganisms, Method B (tables I6-I11); format: cell-based; conditions: alone, read-out: Efficacy %
Description: as §1, §2, §3, §4, §5

Colletotrichum coccodes = assay: in vitro-Test with fungal microorganisms, Method B (tables J1-J11); format: cell-based; conditions: Colletotrichum coccodes, applied alone, read-out: Efficacy %
Description: as §1, §2, §3, §4, §5

[7] = Botrytis cinerea, read-out: Efficacy %

Compound `CS(=O)(=O)Oc1cccc(Cl)c1C1CC(c2csc(C3CCN(C(=O)Cn4nc(C(F)F)cc4C(F)F)CC3)n2)=NO1` (stereo not shown) [fluoxapiprolin] has an Efficacy % (Cercospora beticola [1]; 20 ppm) of 0%, an Efficacy (Alternaria alternata; 4 ppm) of 0% and an Efficacy (Alternaria alternata; 20 ppm) of 1%. The Efficacy (Alternaria alternata; single compound, 0.8 ppm) was 0%, the Efficacy % (Botrytis cinerea [2]; 0.8 ppm, alone) was 0% and the Efficacy % (Botrytis cinerea [2]; 4 ppm alone) was 6%. The Efficacy % (Botrytis cinerea [2]; 20 ppm alone) was 5%.

With `Cc1ccc(CC2CON=C(c3cc(C)nnc3Oc3cccc(C4CC4)c3F)N2)c(C)c1` (racemic) [Compound I-052, rac-3-[3-(3-cyclopropyl-2-fluorophenoxy)-6-methylpyridazin-4-yl]-5-[(2,4-dimethylphenyl)methyl]-5,6-dihydro-4H-1,2,4-oxadiazine] the inhibition of growth at 0.0008 ppm (Cercospora beticola [3]; 0.0008 ppm alone) was 0%, the inhibition of growth at 0.004 ppm (Cercospora beticola [3]; 0.004 ppm alone) was 0% and the inhibition of growth at 0.02 ppm (Cercospora beticola [3]; 0.02 ppm alone) was 0%. The inhibition of growth at 0.1 ppm (Cercospora beticola [3]; 0.1 ppm alone) was 20%, the inhibition of growth at 0.0008 ppm (Diaporthe citri; 0.0008 ppm) was 0% and the inhibition of growth at 0.004 ppm (Diaporthe citri; 0.004 ppm) was 0%. For the same compound, the inhibition of growth at 0.02 ppm (Diaporthe citri; 0.02 ppm) was 100%, the inhibition of growth at 0.1 ppm (Diaporthe citri; 0.1 ppm) was 100% and the inhibition of growth at 0.0008 ppm ([4]; 0.0008 ppm) was 2%. For the same compound, the inhibition of growth at 0.004 ppm ([4]; 0.004 ppm) was 3%, the inhibition of growth at 0.02 ppm ([4]; 0.02 ppm) was 0% and the inhibition of growth at 0.1 ppm ([4]; 0.1 ppm) was 0%. It also gave an inhibition of growth at 0.0008 ppm (Botrytis cinerea [5]; 0.0008 ppm) of 0%, an inhibition of growth at 0.004 ppm (Botrytis cinerea [5]; 0.004 ppm) of 0% and an inhibition of growth at 0.02 ppm (Botrytis cinerea [5]; 0.02 ppm) of 0%. It also gave an inhibition of growth at 0.1 ppm (Botrytis cinerea [5]; 0.1 ppm) of 88%, an inhibition of growth at 0.0008 ppm (Alternaria alternate; 0.0008 ppm) of 2% and an inhibition of growth at 0.004 ppm (Alternaria alternate; 0.004 ppm) of 0%. It also gave an inhibition of growth at 0.02 ppm (Alternaria alternate; 0.02 ppm) of 9% and an inhibition of growth at 0.1 ppm (Alternaria alternate; 0.1 ppm) of 72%.

Compound `Cc1ccc(C[C@@H]2CON=C(c3cc(C)nnc3Oc3cccc(Cl)c3F)N2)c(Cl)c1` [Compound I-338, (5R)-3-[3-(3-chloro-2-fluorophenoxy)-6-methylpyridazin-4-yl]-5-(2-chloro-4-methylbenzyl)-5,6-dihydro-4H-1,2,4-oxadiazine] has an inhibition of growth at 0.008 ppm (Fusarium culmorum) of 22%, an inhibition of growth at 0.04 ppm (Fusarium culmorum) of 21% and an inhibition of growth at 0.2 ppm (Fusarium culmorum) of 0%. For the same compound, the inhibition of growth at 1 ppm (Fusarium culmorum) was 0%, the Efficacy (Alternaria alternata; 0.008 ppm) was 0% and the inhibition of growth at 0.008 ppm (Alternaria alternata; 0.008 ppm) was 0%. It also gave an inhibition of growth at 1 ppm (Botrytis cinerea [2]; [7]) of 85%.

`Cc1ccc(C[C@H]2CON=C(c3cc(C)nnc3Oc3cccc(Cl)c3F)N2)c(Cl)c1` [Compound I-339, (5S)-3-[3-(3-chloro-2-fluoro-phenoxy)-6-methylpyridazin-4-yl]-5-(2-chloro-4-methylbenzyl)-5,6-dihydro-4H-1,2,4-oxadiazine] was tested, and the inhibition of growth at 0.008 ppm (Fusarium culmorum) was 0%, the inhibition of growth at 0.04 ppm (Fusarium culmorum) was 0% and the inhibition of growth at 0.2 ppm (Fusarium culmorum) was 14%. For the same compound, the inhibition of growth at 1 ppm (Fusarium culmorum) was 99%, the inhibition of growth at 0.008 ppm (Cercospora beticola [1]; Cercospora beticola, 0.008 ppm, read-out: Efficacy %) was 28% and the inhibition of growth at 0.04 ppm (Cercospora beticola [1]; Cercospora beticola, 0.04 ppm, read-out: Efficacy %) was 0%. It also gave an inhibition of growth at 0.2 ppm (Cercospora beticola [1]; Cercospora beticola, 0.2 ppm, read-out: Efficacy %) of 61%, an inhibition of growth at 1 ppm (Cercospora beticola [1]; Cercospora beticola, 1 ppm, read-out: Efficacy %) of 98% and an inhibition of growth at 0.04 ppm (Alternaria alternata; single compound) of 100%. It also gave an inhibition of growth at 0.2 ppm (Alternaria alternata; single compound) of 100%, an inhibition of growth at 1 ppm (Alternaria alternata; single compound) of 100% and an inhibition of growth at 0.008 ppm (Cordana musae; 0.008 ppm) of 63%. The inhibition of growth at 0.04 ppm (Cordana musae; 0.04 ppm) was 100%, the inhibition of growth at 0.2 ppm (Cordana musae; 0.2 ppm) was 100% and the inhibition of growth at 1 ppm (Cordana musae; 1 ppm) was 100%. For the same compound, the inhibition of growth at 0.008 ppm ([6]; 0.008 ppm) was 2%, the inhibition of growth at 0.04 ppm ([6]; 0.04 ppm) was 0% and the inhibition of growth at 0.2 ppm ([6]; 0.2 ppm) was 0%. The inhibition of growth at 1 ppm ([6]; 1 ppm) was 0%.

In the case of `Cc1ccc(C[C@H]2CON=C(c3cc(C)nnc3Oc3cccc(C4CC4)c3F)N2)c(C)c1` [Compound I-130, (5S)-3-[3-(3-cyclopropyl-2-fluorophenoxy)-6-methylpyridazin-4-yl]-5-(2,4-dimethylbenzyl)-5,6-dihydro-4H-1,2,4-oxadiazine], the inhibition of growth at 0.008 ppm (Colletotrichum coccodes; 0.008 ppm) was 94%, the inhibition of growth at 0.04 ppm (Colletotrichum coccodes; 0.04 ppm) was 100% and the inhibition of growth at 0.2 ppm (Colletotrichum coccodes; 0.2 ppm) was 100%. It also gave an inhibition of growth at 1 ppm (Colletotrichum coccodes; 1 ppm) of 100%, an inhibition of growth at 0.008 ppm (Alternaria alternata; 0.008 ppm) of 25% and an inhibition of growth at 0.04 ppm (Alternaria alternata) of 100%. For the same compound, the inhibition of growth at 0.2 ppm (Alternaria alternata) was 100%, the inhibition of growth at 1 ppm (Alternaria alternata) was 100% and the inhibition of growth at 0.008 ppm (Botrytis cinerea [2]; Botrytis cinerea, 0.008 ppm alone, read-out: Efficacy %) was 96%. It also gave an inhibition of growth at 0.04 ppm (Botrytis cinerea [2]; Botrytis cinerea, 0.04 ppm alone, read-out: Efficacy %) of 100%, an inhibition of growth at 0.2 ppm (Botrytis cinerea [2]; Botrytis cinerea, 0.2 ppm alone, read-out: Efficacy %) of 100% and an inhibition of growth at 1 ppm (Botrytis cinerea [2]; [7]) of 100%.

`CCO[PH](=O)O` [fosetyl-al] showed an Efficacy % (Botrytis cinerea [2]; 4 ppm alone) of 2% and an Efficacy % (Botrytis cinerea [2]; 100 ppm alone) of 0%.
